Results from paper PMC4946967 (ACS chemical biology, 2016).
Changes are numbered by the printed parent chain. “Also recorded” adds a separate entry of the source.

Tests used:
[1] = target: T1, D57N-human RNR-α mutant (Homo sapiens, UniProt P23921, D57N); settings: cited from earlier work
T1 sequence (P23921 1-792 D57N): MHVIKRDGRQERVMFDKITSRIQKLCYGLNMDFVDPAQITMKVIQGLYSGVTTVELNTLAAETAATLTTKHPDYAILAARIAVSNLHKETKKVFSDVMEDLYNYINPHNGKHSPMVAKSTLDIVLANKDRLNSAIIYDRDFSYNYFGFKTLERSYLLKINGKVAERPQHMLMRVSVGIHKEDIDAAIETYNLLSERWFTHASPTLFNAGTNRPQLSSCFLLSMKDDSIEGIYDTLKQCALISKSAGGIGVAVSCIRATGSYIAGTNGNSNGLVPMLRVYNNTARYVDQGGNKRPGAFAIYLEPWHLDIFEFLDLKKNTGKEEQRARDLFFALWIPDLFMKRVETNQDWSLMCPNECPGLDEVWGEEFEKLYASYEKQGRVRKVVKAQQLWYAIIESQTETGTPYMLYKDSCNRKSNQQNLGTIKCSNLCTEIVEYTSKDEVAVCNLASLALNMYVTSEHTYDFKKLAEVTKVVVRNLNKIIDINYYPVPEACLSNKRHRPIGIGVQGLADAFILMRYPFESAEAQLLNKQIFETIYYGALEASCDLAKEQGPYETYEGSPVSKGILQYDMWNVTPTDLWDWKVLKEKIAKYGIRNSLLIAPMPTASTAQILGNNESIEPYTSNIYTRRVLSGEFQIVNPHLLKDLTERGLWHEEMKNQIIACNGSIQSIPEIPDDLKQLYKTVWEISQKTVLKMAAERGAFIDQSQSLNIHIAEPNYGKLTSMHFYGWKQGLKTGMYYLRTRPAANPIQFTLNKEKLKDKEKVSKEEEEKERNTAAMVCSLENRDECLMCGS

[2] = target: T2, RNR-α (Homo sapiens, UniProt P23921); assay: RNR-α-specific CDP/ATP-reductase activity inhibition assay; type: biochemical
T2 sequence (P23921 1-792): T1 sequence (P23921 1-792 D57N) with N57D

[3] = test system: E. coli RNR; settings: cited from earlier work
[4] = target: T3, mutant (D57N)-mouse(m)RNR-α (Mus musculus, UniProt P07742, D57N); type: cell-based; settings: 3 h treatment; 5, 50, 300 μM ClF, ClA, FlUMP; D57N-mRNR-α 3T3 cells
T3 sequence (P07742 1-792 D57N): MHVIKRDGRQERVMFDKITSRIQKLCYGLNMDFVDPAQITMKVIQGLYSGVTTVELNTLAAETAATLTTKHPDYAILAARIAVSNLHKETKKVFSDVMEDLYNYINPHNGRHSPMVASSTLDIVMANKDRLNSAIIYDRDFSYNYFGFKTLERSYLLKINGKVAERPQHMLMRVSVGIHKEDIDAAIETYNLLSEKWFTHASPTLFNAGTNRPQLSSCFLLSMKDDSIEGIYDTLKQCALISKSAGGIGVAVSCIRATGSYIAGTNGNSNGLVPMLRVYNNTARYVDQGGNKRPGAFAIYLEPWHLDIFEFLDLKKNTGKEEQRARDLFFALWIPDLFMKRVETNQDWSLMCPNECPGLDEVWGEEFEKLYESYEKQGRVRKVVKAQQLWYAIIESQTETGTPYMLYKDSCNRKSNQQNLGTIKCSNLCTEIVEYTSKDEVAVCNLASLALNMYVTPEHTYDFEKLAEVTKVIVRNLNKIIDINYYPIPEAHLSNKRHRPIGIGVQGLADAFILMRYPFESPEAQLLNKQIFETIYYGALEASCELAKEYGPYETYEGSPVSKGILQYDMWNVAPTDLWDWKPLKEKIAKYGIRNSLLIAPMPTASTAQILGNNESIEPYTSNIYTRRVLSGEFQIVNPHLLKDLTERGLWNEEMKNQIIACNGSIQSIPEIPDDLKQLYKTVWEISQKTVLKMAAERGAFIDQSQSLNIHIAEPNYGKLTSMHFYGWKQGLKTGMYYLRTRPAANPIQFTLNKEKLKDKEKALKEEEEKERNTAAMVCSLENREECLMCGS

[5] = test system: Flp-In 293 T-REx cells expressing RNR-α-Flag
[6] = test system: Flp-In 293 T-REx cells expressing D57N-α-Flag
[7] = target: T2, RNR-α; settings: cited from earlier work

For `Nc1nc(Cl)nc2c1ncn2[C@@H]1O[C@H](COP(=O)(O)OP(=O)(O)O)[C@@H](O)[C@@H]1F` [ClFDP, clofarabine diphosphate], the “inhibition of D57N-α-specific RNR activity” value [1] is given as “can inhibit; also recorded: able to inhibit both wt- and D57N-α with similar potency”, the “higher affinity than ClADP and FlUDP” value [2] is given as 10–100 fold and the “inhibition of E. coli RNR” value [3] is given as “failed to inhibit”.
For `Nc1nc(Cl)nc2c1ncn2[C@@H]1O[C@H](CO)[C@@H](O)[C@@H]1F` [ClF, clofarabine], the “RNR reductase activity in D57N-α-expressing lines after drug treatment” value [4] was “resistance”, the “effect of RNR-α overexpression on cytotoxicity relative to noninduced cells” value [5] was “small effect on the EC50” and the “protection against cytotoxicity upon tet induction relative to noninduced” value [6] was over 20 fold.
For `Nc1ccn([C@@H]2O[C@H](COP(=O)(O)OP(=O)(O)OP(=O)(O)O)[C@@H](O)C2(F)F)c(=O)n1` [F2CTP], the “effect on RNR-α oligomeric state or holoenzyme activity” value [7] is given as “no effect”.
